Tests used:
H1299 = assay: MTT cell viability assay, H1299; type: cell-based, human; settings: 48 h
Method: (§1) Cells were seeded at a density of 1 × 10^4 cells per well in 96-well plates. The following day, these cells were washed with PBS and exposed to different concentrations of testing compounds in culture medium for 48 h. MTT solution (10 μl at 5 mg/ml) was added to each well. After 4 h of incubation at 37°C, the medium was removed, and the insoluble precipitate was dissolved in 100 μl DMSO (Sigma, St. Louis, MO, USA). The absorbance of the dissolved solution at 490 nm was measured using a microplate reader (TECAN A-5082; Megllan, Austria). Cell viability percentages were calculated by dividing the mean optical density (OD) of compound-containing wells by that of the control wells. Each experiment was replicated three times. The IC50 of testing drugs was calculated with Statistical Product and Service Solutions software (SPSS, version 16.0).

H1650 = assay: MTT cell viability assay, H1650; type: cell-based, human; settings: 48 h
Method: as §1

[1] = tested on: JNK, Erk1/2 and p38 phosphorylation in A549 and H292 cells; assay: Western blot of MAPK phosphorylation (JNK, Erk1/2, p38); type: cell-based, human
Method: Cells were treated with diplatin, DDP, and CBP before being lysed. After centrifugation at 12,000 rpm for 10 min, an equal amount of protein from each group was subjected to electrophoresis on 10% SDS-PAGE gels. The proteins in the gel were then electroblotted onto polyvinylidene fluoride (PVDF) membranes (Millipore, Massachusetts, USA). After incubation in the blocking buffer (1× TBS, 0.1% Tween-20, and 5% w/v dry nonfat milk) for 1 h at room temperature, the membranes were incubated with the primary antibody at 4°C overnight. Next, membranes were rinsed with TBST, and then secondary antibodies were applied (LI-COR, USA) at room temperature for 1 h. Immunoreactive bands were visualized by a two-color infrared imaging system (Odyssey, LI-COR, USA).

[2] = tested on: BEAS-2B normal human lung epithelial cell line; assay: MTT cell viability assay, BEAS-2B; type: cell-based
Method: as §1

[3] = tested on: VEGF, p53, and Bax expression in the xenograft A549 and H292 lung tumor tissue; assay: Immunohistochemistry of xenograft tumor sections; type: in vivo, mice
Method: All tumor tissues were harvested and fixed in 4% buffered formalin. After 72 h, tumor tissues were embedded in paraffin and cut into 4 μm sections for immunohistochemistry assays. The streptavidin–biotin complex (SABC) method was used for immunohistochemical staining. Lung tissue sections from mice with no intervention were used as controls. The section slides were baked in an oven at 60°C for 1 h, washed in xylene, and hydrated in different concentrations of alcohol. Subsequently, endogenous peroxidase activity was quenched with 3% hydrogen peroxide for 10 min. To unmask the antigen, the slides were submerged in citrate buffer (0.01 M, pH 6.0) at 95°C for 5 min. The slides were blocked for 20 min with normal goat serum blocking solution. Primary antibodies were incubated at 4°C overnight. Primary antibody dilutions were as follows: 1:200 for VEGF, p53, and Bax. Immunocomplexes were visualized with 3,3′-diaminobenzidine (DAB), and the density was measured with the DP2-BSW software (Olympus, Tokyo, Japan).

normal ICR mice = assay: LD50 in normal ICR mice; type: in vivo; settings: tail vein injection
Method: After injection, the animals’ condition was monitored every day for over 1 week by an observer who was blinded to the dose and drug allocation.
Estimates for ED50 and LD50 were calculated through nonlinear regression, data were fitted to a sigmoidal dose-response relationship in Prism (version 4.0a; GraphPad Software, Inc., San Diego, CA). The data were fitted to the equation:
Y=Ymin+Ymax−Ymin/1+10^(LogED50−X)∗HillSlope
where X is the logarithm of concentration, and Y is the response.

H292 = assay: MTT cell viability assay, H292; type: cell-based, human; settings: 48 h
Method: as §1

A549 = assay: MTT cell viability assay, A549; type: cell-based, human; settings: 48 h
Method: as §1

## CCN(CC)CCCCC1C(=O)[O][Pt][O]C1=O.N[C@@H]1CCCC[C@H]1N.O=P(O)(O)O [Diplatin]
H1299
  IC50: 57.5 µM
H1650
  IC50: 36.6 µM
[1]; 0.5 h exposure
  concentration of apparent maximum JNK phosphorylation: 25 µM
[1]; diplatin 10, 25, 50 μM, DDP 5 μM, CBP 100 μM
  Erk1/2 and p38 phosphorylation: failed to induce Erk1/2 and p38 phosphorylation
[1]; diplatin 10–50 μM, DDP 10 μM, 0.5 h
  JNK phosphorylation levels: elevated
[2]; BEAS-2B normal lung epithelial cells, MTT, 48 h
  IC50: 47.9 µM
[2]; vs DDP
  suppression of the viability of BEAS-2B cells compared to DDP: threefold less suppression
[3]; 120 mg/kg
  VEGF expression in tumor sections compared to the control: lower expression of VEGF
  p53 and Bax expression in the A549 and H292 tumor sections: significantly enhanced
[3]; diplatin 120 mg/kg vs DDP and CBP
  effect on p53 expression in tumor sections compared with DDP and CBP treatment: nearly two-fold more potent
Normal ICR mice
  Mice LD50: 496 mg/kg
H292
  IC50: 30.9 µM
A549
  IC50: 102 µM

— publication PMC6749073 (Frontiers in Pharmacology, 2019)
